Experimental data taken from patent US20090143279A1 (priority 2007, published 2009).
Like-named read-outs stand apart in the source and are kept apart here.

Tests used:
[1] = system: mitochondrial membrane potential; assay type: cell-based, mouse; settings: for ΔΨm (composite Z-score): normalized score vs mock-treated (DMSO) wells
reactive oxygen species = assay type: cell-based, mouse; settings: for ROS (composite Z-score): normalized score vs mock-treated (DMSO) wells
OXPHOS gene expression = assay type: cell-based, mouse; settings: for GE-HTS (composite Z-score): normalized score vs mock-treated (DMSO) wells
nuOXPHOS transcripts = assay type: cell-based, mouse; settings: for nucOX (composite Z-score): normalized score vs mock-treated (DMSO) wells
mtOXPHOS transcripts = assay type: cell-based, mouse; settings: for mitoOX (composite Z-score): normalized score vs mock-treated (DMSO) wells
cytochrome c = assay type: cell-based, mouse; settings: for cyt c (composite Z-score): normalized score vs mock-treated (DMSO) wells
C2C12 myotubes = settings: for Viability (composite Z-score): normalized score vs mock-treated (DMSO) wells
[2] = system: cellular dehydrogenase activity; settings: for MTT (composite Z-score): normalized score vs mock-treated (DMSO) wells
[3] = composite Z-score vs mock-treated (DMSO) wells, Conc 20 μM
[4] = normalized composite Z-score vs mock-treated (DMSO) wells, Conc 20 μM
[5] = 20 μM, composite Z-score vs DMSO
[6] = composite Z-score vs DMSO, Conc 20 μM
[7] = 27.18 μM, composite Z-score vs DMSO
[8] = composite Z-score vs DMSO wells, Conc 20 μM

SMILES: CC(=O)[C@H]1CC[C@H]2[C@@H]3CCC4C[C@H](O)CC[C@]4(C)[C@H]3C[C@H](O)[C@]12C (stereo partly drawn) [dihydroxy (3alpha,12alpha)pregnan-20-one]
- ΔΨm [1, 3]: −0.540
- ROS (reactive oxygen species; [3]): 0.206
- GE-HTS (OXPHOS gene expression; [3]): −0.928
- nucOX (nuOXPHOS transcripts; [3]): −0.972
- mitoOX (mtOXPHOS transcripts; [3]): −0.621
- cyt c (cytochrome c; [3]): −0.685
- Viability (C2C12 myotubes; [3]): −0.622
- MTT [2, 3]: −1.160

SMILES: CC(=O)O[C@@H]1CC2C(C)(C)[C@H](O)CC[C@]2(C)C2CC[C@@]3(C)[C@H](c4ccoc4)OC(=O)C4OC43[C@@]21C (stereo partly drawn) [3alpha-hydroxydeoxodihydrogedunin]
- ΔΨm [1, 4]: −0.061
- ROS (reactive oxygen species; [4]): 1.207
- GE-HTS (OXPHOS gene expression; [4]): −0.892
- nucOX (nuOXPHOS transcripts; [4]): −0.832
- mitoOX (mtOXPHOS transcripts; [4]): −0.857
- cyt c (cytochrome c; [4]): 1.091
- Viability (C2C12 myotubes; [4]): 0.065
- MTT [2, 4]: −1.072

SMILES: Cc1cc(O)ccc1Cl [chlorocresol]
- ΔΨm [1, 5]: 0.528
- ROS (reactive oxygen species; [5]): 0.102
- GE-HTS (OXPHOS gene expression; [5]): 0.206
- nucOX (nuOXPHOS transcripts; [5]): 0.611
- mitoOX (mtOXPHOS transcripts; [5]): −0.728
- cyt c (cytochrome c; [5]): 0.747
- Viability (C2C12 myotubes; [5]): −0.414
- MTT [2, 5]: −0.607

SMILES: CC(=O)[C@@]1(O)CC[C@H]2[C@@H]3C=C(Cl)C4=CC(=O)[C@@H]5C[C@@H]5[C@]4(C)[C@H]3CC[C@@]21C [cyproterone]
- ΔΨm [1, 6]: −0.962
- ROS (reactive oxygen species; [6]): 1.155
- GE-HTS (OXPHOS gene expression; [6]): −0.490
- nucOX (nuOXPHOS transcripts; [6]): −0.461
- mitoOX (mtOXPHOS transcripts; [6]): −0.446
- cyt c (cytochrome c; [6]): 0.548
- Viability (C2C12 myotubes; [6]): 0.014
- MTT [2, 6]: 0.079

SMILES: CC1(C)C(=O)C=C[C@]2(C)[C@H]3CC[C@@]4(C)[C@H](c5ccoc5)OC(=O)[C@H]5O[C@]54[C@]3(C)C(=O)C[C@@H]12 [deacetoxy-7-oxogedunin]
- ΔΨm [1, 3]: 1.322
- ROS (reactive oxygen species; [3]): −0.301
- GE-HTS (OXPHOS gene expression; [3]): −0.407
- nucOX (nuOXPHOS transcripts; [3]): −0.287
- mitoOX (mtOXPHOS transcripts; [3]): −0.632
- cyt c (cytochrome c; [3]): 0.047
- Viability (C2C12 myotubes; [3]): 0.089
- MTT [2, 3]: −0.029

SMILES: CCN1C[C@]2(C)CC[C@H](OC)[C@@]34C1[C@]1(OCO[C@@]15C[C@H](OC)[C@H]1C[C@]3(O)[C@@H]5[C@H]1OC)[C@@H](OC(C)=O)[C@H]24 [deltaline]
- ΔΨm (composite Z-score) ([1]; Conc 20 μM): −0.496
- ROS (composite Z-score) (reactive oxygen species; Conc 20 μM): 1.654
- GE-HTS (composite Z-score) (OXPHOS gene expression; Conc 20 μM): −0.220
- nucOX (composite Z-score) (nuOXPHOS transcripts; Conc 20 μM): −0.062
- mitoOX (composite Z-score) (mtOXPHOS transcripts; Conc 20 μM): −0.422
- cyt c (composite Z-score) (cytochrome c; Conc 20 μM): 0.271
- Viability (composite Z-score) (C2C12 myotubes; Conc 20 μM): −0.735
- MTT (composite Z-score) ([2]; Conc 20 μM): −1.231

SMILES: C[N+](C)(C)CCOC(N)=O [carbachol]
- ΔΨm [1, 5]: −0.965
- ΔΨm [1, 7]: −0.296
- ROS (reactive oxygen species; [5]): 1.304
- ROS (reactive oxygen species; [7]): 1.223
- GE-HTS (OXPHOS gene expression; [5]): 0.355
- GE-HTS (OXPHOS gene expression; [7]): −0.060
- nucOX (nuOXPHOS transcripts; [5]): 0.273
- nucOX (nuOXPHOS transcripts; [7]): −0.176
- mitoOX (mtOXPHOS transcripts; [5]): 0.391
- mitoOX (mtOXPHOS transcripts; [7]): 0.191
- cyt c (cytochrome c; [5]): −0.154
- cyt c (cytochrome c; [7]): −0.202
- Viability (C2C12 myotubes; [5]): −0.502
- Viability (C2C12 myotubes; [7]): −0.239
- MTT [2, 5]: −1.002
- MTT [2, 7]: 0.905

SMILES: CN1CCC[C@H]1c1cccnc1 [nicotine]
- ΔΨm [1]: −0.423
- ROS (reactive oxygen species): 0.503
- GE-HTS (OXPHOS gene expression): −1.360
- nucOX (nuOXPHOS transcripts): −1.032
- mitoOX (mtOXPHOS transcripts): −1.705
- cyt c (cytochrome c): 0.348
- Viability (C2C12 myotubes): −0.093
- MTT [2]: −1.228

SMILES: COc1ccc(-c2c(OC)c3c(OC)c4c(cc3oc2=O)OC(C)(C)C=C4)cc1 [robustic acid methyl ether, reference compound]
- ΔΨm (composite Z-score) ([1]; Conc 20 μM): 0.692
- ROS (composite Z-score) (reactive oxygen species; Conc 20 μM): 1.431
- GE-HTS (composite Z-score) (OXPHOS gene expression; Conc 20 μM): 0.230
- nucOX (composite Z-score) (nuOXPHOS transcripts; Conc 20 μM): 0.444
- mitoOX (composite Z-score) (mtOXPHOS transcripts; Conc 20 μM): −0.223
- cyt c (composite Z-score) (cytochrome c; Conc 20 μM): 0.679
- Viability (composite Z-score) (C2C12 myotubes; Conc 20 μM): 0.497
- MTT (composite Z-score) ([2]; Conc 20 μM): 0.474

SMILES: CC12CCC(O)CC1CCc1ccccc12 (centres unmarked)
- ΔΨm (composite Z-score) ([1]; Conc 20 μM): −0.339
- ROS (composite Z-score) (reactive oxygen species; Conc 20 μM): 0.477
- GE-HTS (composite Z-score) (OXPHOS gene expression; Conc 20 μM): −0.250
- nucOX (composite Z-score) (nuOXPHOS transcripts; Conc 20 μM): −0.023
- mitoOX (composite Z-score) (mtOXPHOS transcripts; Conc 20 μM): −0.717
- cyt c (composite Z-score) (cytochrome c; Conc 20 μM): 0.790
- Viability (composite Z-score) (C2C12 myotubes; Conc 20 μM): 0.056
- MTT (composite Z-score) ([2]; Conc 20 μM): −0.574

SMILES: C[C@]12CCC(=O)C(O)=C1CC[C@@H]1[C@@H]2CC[C@]2(C)C(=O)CC[C@@H]12 [formestane]
- ΔΨm [1, 6]: −0.608
- ROS (reactive oxygen species; [6]): 1.013
- GE-HTS (OXPHOS gene expression; [6]): 0.097
- nucOX (nuOXPHOS transcripts; [6]): 0.050
- mitoOX (mtOXPHOS transcripts; [6]): 0.121
- cyt c (cytochrome c; [6]): −0.115
- Viability (C2C12 myotubes; [6]): −0.582
- MTT [2, 6]: −0.725

SMILES: COc1ccc2oc3ccccc3c(=O)c2c1 [2-methoxyxanthone]
- ΔΨm [1, 6]: 0.540
- ROS (reactive oxygen species; [6]): 1.398
- GE-HTS (OXPHOS gene expression; [6]): −0.467
- nucOX (nuOXPHOS transcripts; [6]): −0.710
- mitoOX (mtOXPHOS transcripts; [6]): 0.165
- cyt c (cytochrome c; [6]): 1.007
- Viability (C2C12 myotubes; [6]): −0.428
- MTT [2, 6]: −1.044

SMILES: CCCC(=O)Nc1ccc(OCC(O)CNC(C)C)c(C(C)=O)c1 (centres unmarked) [acebutolol]
- ΔΨm [1, 8]: 0.016
- ROS (reactive oxygen species; [8]): 1.061
- GE-HTS (OXPHOS gene expression; [8]): −0.511
- nucOX (nuOXPHOS transcripts; [8]): −0.591
- mitoOX (mtOXPHOS transcripts; [8]): −0.254
- cyt c (cytochrome c): −0.884
- cyt c (cytochrome c; [8]): 0.214
- Viability (C2C12 myotubes; [8]): −0.271
- MTT [2, 8]: −0.548

SMILES: CC(C)=CCC[C@](C)(O)C1CC=C(C)CC1 (some centres unmarked) [bisabolol]
- ΔΨm [1, 6]: −0.234
- ROS (reactive oxygen species; [6]): 0.061
- GE-HTS (OXPHOS gene expression; [6]): −0.963
- nucOX (nuOXPHOS transcripts; [6]): −0.983
- mitoOX (mtOXPHOS transcripts; [6]): −0.690
- cyt c (cytochrome c; [6]): 0.738
- Viability (C2C12 myotubes; [6]): 0.300
- MTT [2, 6]: 0.031

SMILES: CC(C)=CCC/C(C)=C/CC/C(C)=C/CO [farnesol]
- ΔΨm [1, 6]: −0.153
- ROS (reactive oxygen species; [6]): 0.550
- GE-HTS (OXPHOS gene expression; [6]): −0.066
- nucOX (nuOXPHOS transcripts; [6]): 0.106
- mitoOX (mtOXPHOS transcripts; [6]): −0.401
- cyt c (cytochrome c; [6]): −0.437
- Viability (C2C12 myotubes; [6]): −1.327
- MTT [2, 6]: −1.554

SMILES: Cc1cc(C2CCCCC2)n(O)c(=O)c1 [ciclopirox olamine]
- ΔΨm [1, 5]: 2.355
- ROS (reactive oxygen species; [5]): −1.545
- GE-HTS (OXPHOS gene expression; [5]): −0.965
- nucOX (nuOXPHOS transcripts; [5]): −1.098
- mitoOX (mtOXPHOS transcripts; [5]): −0.569
- cyt c (cytochrome c; [5]): −0.381
- Viability (C2C12 myotubes; [5]): −1.409
- MTT [2, 5]: −3.390

SMILES: COc1ccc2c(c1OC)C(=O)O[C@@H]2[C@H]1c2cc3c(cc2CCN1C)OCO3 [1s,9r-hydrastine]
- ΔΨm [1]: −0.849
- ROS (reactive oxygen species; [6]): −0.029
- GE-HTS (OXPHOS gene expression; [6]): −0.152
- nucOX (nuOXPHOS transcripts; [6]): −0.041
- mitoOX (mtOXPHOS transcripts; [6]): −0.341
- cyt c (cytochrome c; [6]): 0.359
- Viability (C2C12 myotubes; [6]): 0.650
- MTT [2, 6]: −0.539

SMILES: CC(=O)O[C@H]1C[C@@H](O)C(C)(C)[C@@H]2C[C@@H](OC(C)=O)[C@]3(C)[C@H](CC[C@@]4(C)[C@@H](c5ccoc5)OC(=O)[C@H]5O[C@@]534)[C@@]12C [3-deacetylkhivorin]
- ΔΨm [1, 4]: 0.274
- ROS (reactive oxygen species; [4]): 0.619
- GE-HTS (OXPHOS gene expression; [4]): −0.661
- nucOX (nuOXPHOS transcripts; [4]): −0.823
- mitoOX (mtOXPHOS transcripts; [4]): −0.272
- cyt c (cytochrome c; [4]): −0.600
- Viability (C2C12 myotubes; [4]): 0.398
- MTT [2, 4]: −0.317

SMILES: Cc1cc(O)cc(C)c1Cl [chloroxylenol]
- ΔΨm [1, 5]: −0.917
- ROS (reactive oxygen species; [5]): 2.165
- GE-HTS (OXPHOS gene expression; [5]): −0.811
- nucOX (nuOXPHOS transcripts; [5]): −0.857
- mitoOX (mtOXPHOS transcripts; [5]): −0.614
- cyt c (cytochrome c; [5]): 0.499
- Viability (C2C12 myotubes; [5]): −0.639
- MTT [2, 5]: −2.046
